# Tests used:
# [1] = biological target: T1, membrane-associated human IR-B (Homo sapiens, UniProt P06213); test: Insulin receptor affinity on membrane associated receptors (SPA), IR-B; assay type: binding; details: relative to human insulin
# T1 construct: expressed in transfected cells; host or cells: BHK cells, pZem219B vector, plasma membrane preparation
# Experimental: Membrane-associated human IR and IGF-1R are purified from BHK cells stably transfected with the pZem219B vector containing either the human IR-A, IR-B or IGF-IR insert. BHK cells are harvested and homogenized in ice-cold buffer (25 mM HEPES pH 7.4, 25 mM CaCl2 and 1 mM MgCl2, 250 mg/L bacitracin, 0.1 mM Pefablock). The homogenates are layered on a 41% (w/v) sucrose cushion and centrifuged for 75 minutes at 95000 g at 4° C. The plasma membranes are collected, diluted 1:5 with buffer (as above) and centrifuged again for 45 minutes at 40000 g at 4° C. The pellets are resuspended in a minimal volume of buffer and drawn through a needle (size 23) three times before storage at −80° C. until usage. The relative binding affinity for either of the membrane-associated human IR-A, IR-B or IGF-1R is determined by competition binding in a SPA setup. IR assays are performed in duplicate in 96-well OptiPlates (Perkin-Elmer Life Sciences). Membrane protein is incubated with gentle agitation for 150 minutes at 25° C. with 50 pM [^125IA14Y]-human insulin in a total volume of […] assay buffer (50 mM HEPES, 150 mM NaCl, 5 mM MgSO4, 0.01% Triton X-100, 0.1% (w/v) HSA (Sigma A1887), Complete EDTA-free protease inhibitors), 50 μg of wheat germ agglutinate (WGA)-coated PVT microspheres (GE Healthcare) and increasing concentrations of ligand. Assays are terminated by centrifugation of the plate at 2000 rpm for 2 minutes and bound radioactivity quantified by counting on a TopCount NXT (Perkin-Elmer Life Sciences).
# IGF-1R assays are conducted essentially as for the IR binding assays except that membrane-associated IGF-1R and 50 pM [^125I-Tyr31]-human IGF-1 were employed.
# [2] = In vivo PK after s.c. dosing, normal rats; set-up: species or system Sprague-Dawley rat; details: s.c. 30 nmol/kg, mean value
# Experimental: (§1) Insulin-Fc conjugates were tested in vivo by subcutaneous (s.c.) administration to normal and streptozotocin (STZ) treated male Sprague-Dawley (SD) rats.
# (§2) The rats were dosed s.c. in the neck region with a dose of 30 nmol/kg of the insulin-Fc conjugates. Blood samples for blood glucose and plasma insulin analysis were collected from the tongue vein up to 10 days post dosing. The insulin-Fc concentrations were measured by immuno-assay (LLOQ=1000 pM) and the resulting half-life values after s.c. dosing are shown in Table 4. The PK profiles for normal rats are shown in FIG. 3 and for streptozotocin treated rats in FIG. 6. Blood glucose (BG) was measured using Biosen S Line (EKF) and the BG and baseline corrected BG profiles for normal rats are shown in FIGS. 1 and 2 and for streptozotocin treated rats in FIGS. 4 and 5 respectively.
# [3] = In vivo PK after s.c. dosing, streptozotocin treated rats; set-up: species or system Sprague-Dawley rat; details: s.c. 30 nmol/kg, mean value
# Experimental: as §1, §2
# hFcRn ectodomain = biological target: T2, hFcRn ectodomain (Homo sapiens, UniProt P55899); test: SPR analysis of the binding of hFcRn ECD; details: pH 6.0, 25° C., steady-state fitting; read-out: Kn (μM), binding of hFcRn ECD
# T2 construct: the hFcRn ectodomain diluted at 4000 nM with 2-fold serial dilutions was injected
# Experimental: First, the three Insulin-Fc samples diluted at 10 ug/ml and the wild-type hIgG4 Fc (produced in HEK293 cells, i.e. glycosylated) diluted at 30 ug/ml in 10 mM sodium acetate (pH 4.5) (GE Healthcare, catalogue #BR100350) were immobilized on a CMD50L sensor chip (XanTec Bioanalytics GmbH) at spot 2 or 4 at 70-90 RU in each used flow cell via amine coupling with 1×HBS-EP+ (pH 7.4) (GE Healthcare, catalogue #BR-1006-69) used as the running buffer. The wild-type hIgG4 Fc was used as the control sample. In each used flow cell, spots 2, 3 and 4 were activated by 100 mM N-hydroxysuccinimide (NHS) and 400 mM N-ethyl-N′-dimethylaminopropyl carbodiimide hydrochloride (EDC) mixed at equal volume before the immobilization and blocked by 1 M ethanolamine hydrochloride-NaOH (pH 8.5) after the immobilization. NHS, EDC and ethanolamine were obtained from the Amine Coupling Kit, type 2 (GE Healthcare, catalogue #BR100633).
# Next, the hFcRn ectodomain diluted at 4000 nM with 2-fold serial dilutions was injected through each used flow cell for 60 sec to allow for binding of the hFcRn ectodomain to the Insulin-Fc conjugates and wild-type hIgG4 Fc samples immobilized on the sensor chip, followed by dissociation for 180 sec. 1×PBS-EP+ (pH 6.0) was used as the dilution buffer for the hFcRn ectodomain and the running buffer in each binding cycle at the flow rate of 30 ul/min. After each binding cycle, the sensor chip was regenerated with a 60 sec injection of 1×PBS-EP+ (pH 7.4) at the flow rate of 30 ul/min. The 1×PBS-EP+ (pH 7.4) buffer was prepared by diluting 0.5 M EDTA (pH 8.0) (Invitrogen, catalogue #15575038) at 3 mM into 1×PBS-P+ (GE Healthcare, catalogue #28995084). The 1×PBS-EP+ (pH 6.0) buffer was prepared by adjusting the pH of the 1×PBS-EP+ buffer from 7.4 to 6.0 using ˜10 M HCl. The affinities (equilibrium dissociation constants, KD) were determined via steady-state fitting of the binding curves using the 1:1 binding model in Biacore 4000 Evaluation Software 1.0 (GE Healthcare).
# [4] = test system: streptozotocin treated Sprague-Dawley rats; test: In vivo PD, blood glucose lowering in streptozotocin treated rats; set-up: species or system Sprague-Dawley rat; details: s.c. 30 nmol/kg, baseline corrected BG up to 10 days, difference from vehicle, mean
# Experimental: as §1, §2
# primary rat adipocytes = test: Lipogenesis in rat adipocytes; assay type: cell-based; details: relative to human insulin
# Experimental: As a measure of in vitro potency of the insulin conjugatess of the invention, lipogenesis can be used. Primary rat adipocytes are isolated from the epididymale fat pads and incubated with 3H-glucose in buffer containing e.g. 0.1% fat free HSA and either standard (human insulin, HI) or insulin conjugates of the invention. The labelled glucose is converted into extractable lipids in a dose dependent way, resulting in full dose response curves. The result is expressed as relative potency (%) with 95% confidence limits of insulin of the invention compared to standard (HI).
# T1 sequence (P06213 28-758 limits assumed): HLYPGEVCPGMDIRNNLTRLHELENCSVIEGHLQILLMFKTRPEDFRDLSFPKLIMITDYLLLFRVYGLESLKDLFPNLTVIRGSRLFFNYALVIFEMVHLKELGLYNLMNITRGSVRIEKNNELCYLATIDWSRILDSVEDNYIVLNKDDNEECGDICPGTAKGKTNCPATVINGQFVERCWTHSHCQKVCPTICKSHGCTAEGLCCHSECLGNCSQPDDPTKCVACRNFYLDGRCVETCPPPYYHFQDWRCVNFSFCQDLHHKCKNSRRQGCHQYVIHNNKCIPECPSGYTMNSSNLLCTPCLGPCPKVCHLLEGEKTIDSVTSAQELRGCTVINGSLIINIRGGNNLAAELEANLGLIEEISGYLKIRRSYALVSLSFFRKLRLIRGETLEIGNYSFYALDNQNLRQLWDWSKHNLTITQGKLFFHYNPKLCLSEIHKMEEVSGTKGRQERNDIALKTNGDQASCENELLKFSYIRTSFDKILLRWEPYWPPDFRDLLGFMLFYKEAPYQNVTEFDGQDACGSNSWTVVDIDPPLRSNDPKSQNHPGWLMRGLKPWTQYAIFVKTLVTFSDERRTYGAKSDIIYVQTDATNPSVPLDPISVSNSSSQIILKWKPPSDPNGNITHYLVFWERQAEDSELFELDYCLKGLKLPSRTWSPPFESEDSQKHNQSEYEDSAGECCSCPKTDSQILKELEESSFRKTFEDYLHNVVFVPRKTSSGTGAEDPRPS
# T1 sequence (P06213 763-1382 partner limits assumed): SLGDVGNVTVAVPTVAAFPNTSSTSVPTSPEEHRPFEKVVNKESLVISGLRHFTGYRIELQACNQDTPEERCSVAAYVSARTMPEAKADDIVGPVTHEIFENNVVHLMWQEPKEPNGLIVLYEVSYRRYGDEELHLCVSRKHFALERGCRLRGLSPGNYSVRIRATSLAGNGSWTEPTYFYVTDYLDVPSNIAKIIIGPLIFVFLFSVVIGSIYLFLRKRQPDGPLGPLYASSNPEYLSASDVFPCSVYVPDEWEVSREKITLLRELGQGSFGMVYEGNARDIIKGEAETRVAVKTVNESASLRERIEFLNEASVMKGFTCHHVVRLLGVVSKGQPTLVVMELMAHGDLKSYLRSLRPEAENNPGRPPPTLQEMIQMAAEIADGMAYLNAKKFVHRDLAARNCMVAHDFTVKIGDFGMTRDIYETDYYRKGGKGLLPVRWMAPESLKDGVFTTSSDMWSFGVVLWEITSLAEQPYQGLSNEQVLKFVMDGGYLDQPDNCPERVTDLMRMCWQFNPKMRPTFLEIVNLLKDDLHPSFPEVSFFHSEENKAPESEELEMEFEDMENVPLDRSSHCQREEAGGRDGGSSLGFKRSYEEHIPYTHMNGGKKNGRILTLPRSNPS
# T2 sequence (P55899 24-297 limits assumed): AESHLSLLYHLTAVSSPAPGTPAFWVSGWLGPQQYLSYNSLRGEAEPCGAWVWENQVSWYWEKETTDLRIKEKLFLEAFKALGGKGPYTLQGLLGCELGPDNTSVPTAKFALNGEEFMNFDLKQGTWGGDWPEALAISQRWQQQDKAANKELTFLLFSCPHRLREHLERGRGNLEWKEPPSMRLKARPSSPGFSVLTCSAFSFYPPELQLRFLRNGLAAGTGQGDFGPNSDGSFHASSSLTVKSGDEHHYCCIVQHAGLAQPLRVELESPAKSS
# T2 sequence (P61769 21-119 partner): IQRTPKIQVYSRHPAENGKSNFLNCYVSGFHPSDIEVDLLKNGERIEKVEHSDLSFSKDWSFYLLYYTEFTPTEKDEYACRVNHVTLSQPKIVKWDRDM
Substance,hIR-B mem Rel. aff. (%) [1],"PK normal rat [T1/2, s.c. (h)] [2]","PK STZ rat [T1/2, s.c. (h)] [3]",Kd (hFcRn ectodomain),AOCBG STZ rat [4],Lipogenesis Rel. pot. (%) (primary rat adipocytes)
"(A14E, A21G, A22(GQEP)11, A66G, A67Q, A68E, A69K^, A70P, B16H, B25H, B29R, desB30 human insulin)/(226A, 227G, 228P, 234A, 235K, 297E, 315Q, 384Q, des447 hIgG4-Fc(226-447))3,5-bis[(2-acetyl)amino]benzoyl Conjugate [Example 5.2]",1.26%,38 h,39 h,1.6 µM,4106 mM·h,1.14%
"(A14E, A21G, A22(GQEP)12, A70K^, A71P, B25H, B29R, desB30 human insulin)/(226A, 227G, 228P, 234A, 235K, 297E, 315Q, 384Q, des447 hIgG4-Fc(226-447))3,5-bis[(2-acetyl)amino]benzoyl Conjugate [Example 5.1]",3.05%,20 h,24 h,1.5 µM,3181 mM·h,2.86%
